Test [1] has as its target Serine/threonine-protein kinase PAK 4 (Homo sapiens, UniProt O96013). As to the kind of experiment: Inhibition of PAK4 in the presence of 5uM ATP.
For test [2], the target named is T1, Dual specificity tyrosine-phosphorylation-regulated kinase 2 (Homo sapiens) (UniProt Q92630).
T1 sequence (whole entry): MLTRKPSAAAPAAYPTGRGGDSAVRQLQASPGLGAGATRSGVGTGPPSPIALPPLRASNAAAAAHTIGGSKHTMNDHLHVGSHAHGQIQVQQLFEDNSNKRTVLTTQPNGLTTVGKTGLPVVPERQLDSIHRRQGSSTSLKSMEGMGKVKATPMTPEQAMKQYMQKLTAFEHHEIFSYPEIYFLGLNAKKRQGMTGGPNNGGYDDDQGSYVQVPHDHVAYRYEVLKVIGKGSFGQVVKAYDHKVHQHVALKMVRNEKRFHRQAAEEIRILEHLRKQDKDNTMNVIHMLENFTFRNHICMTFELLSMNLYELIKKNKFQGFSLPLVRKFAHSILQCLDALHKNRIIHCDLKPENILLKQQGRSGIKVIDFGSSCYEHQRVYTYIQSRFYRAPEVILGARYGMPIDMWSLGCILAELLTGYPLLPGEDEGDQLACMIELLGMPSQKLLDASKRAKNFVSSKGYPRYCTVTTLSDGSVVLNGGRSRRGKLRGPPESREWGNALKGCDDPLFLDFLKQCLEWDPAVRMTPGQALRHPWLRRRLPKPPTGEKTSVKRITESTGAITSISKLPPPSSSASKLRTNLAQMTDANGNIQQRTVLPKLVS
As to the kind of experiment: Percentage DYRK2 activity remaining in the presence of 3uM inhibitor.

For test [3], the target named is T2, Serine/threonine-protein kinase D1 (Homo sapiens) (UniProt Q15139).
T2 sequence (whole entry): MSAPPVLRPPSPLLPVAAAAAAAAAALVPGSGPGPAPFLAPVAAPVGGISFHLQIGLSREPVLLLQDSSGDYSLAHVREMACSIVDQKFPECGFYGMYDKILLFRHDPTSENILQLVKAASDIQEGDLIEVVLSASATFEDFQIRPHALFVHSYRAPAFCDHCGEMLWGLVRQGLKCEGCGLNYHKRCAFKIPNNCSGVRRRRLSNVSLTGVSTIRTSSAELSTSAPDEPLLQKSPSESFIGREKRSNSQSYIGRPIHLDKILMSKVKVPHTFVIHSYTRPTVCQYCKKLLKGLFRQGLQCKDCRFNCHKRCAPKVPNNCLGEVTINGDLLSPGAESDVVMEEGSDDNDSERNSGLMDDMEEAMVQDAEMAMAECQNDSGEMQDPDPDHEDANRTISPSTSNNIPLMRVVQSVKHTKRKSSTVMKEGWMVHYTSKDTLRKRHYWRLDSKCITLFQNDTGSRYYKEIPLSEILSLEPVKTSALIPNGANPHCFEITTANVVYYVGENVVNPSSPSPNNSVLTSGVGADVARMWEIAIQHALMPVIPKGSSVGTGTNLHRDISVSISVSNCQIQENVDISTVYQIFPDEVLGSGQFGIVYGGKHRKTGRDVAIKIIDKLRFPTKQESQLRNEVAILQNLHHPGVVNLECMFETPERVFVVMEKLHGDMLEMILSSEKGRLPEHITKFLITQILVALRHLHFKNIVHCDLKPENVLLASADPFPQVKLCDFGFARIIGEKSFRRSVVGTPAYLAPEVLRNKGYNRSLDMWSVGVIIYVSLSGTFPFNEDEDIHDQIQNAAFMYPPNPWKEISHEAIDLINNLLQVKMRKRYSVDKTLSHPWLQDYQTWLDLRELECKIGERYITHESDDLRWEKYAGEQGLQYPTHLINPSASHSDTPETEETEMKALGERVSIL
As to the kind of experiment: Percentage PKD1 activity remaining in the presence of 3uM inhibitor.

In test [4] the target is Serine/threonine-protein kinase PAK 5 (Homo sapiens) (UniProt Q9P286). As to the kind of experiment: Percentage PAK5 activity remaining in the presence of 3uM inhibitor.
Sequence of Serine/threonine-protein kinase PAK 5 (Homo sapiens) (Q9P286 whole entry, looked up): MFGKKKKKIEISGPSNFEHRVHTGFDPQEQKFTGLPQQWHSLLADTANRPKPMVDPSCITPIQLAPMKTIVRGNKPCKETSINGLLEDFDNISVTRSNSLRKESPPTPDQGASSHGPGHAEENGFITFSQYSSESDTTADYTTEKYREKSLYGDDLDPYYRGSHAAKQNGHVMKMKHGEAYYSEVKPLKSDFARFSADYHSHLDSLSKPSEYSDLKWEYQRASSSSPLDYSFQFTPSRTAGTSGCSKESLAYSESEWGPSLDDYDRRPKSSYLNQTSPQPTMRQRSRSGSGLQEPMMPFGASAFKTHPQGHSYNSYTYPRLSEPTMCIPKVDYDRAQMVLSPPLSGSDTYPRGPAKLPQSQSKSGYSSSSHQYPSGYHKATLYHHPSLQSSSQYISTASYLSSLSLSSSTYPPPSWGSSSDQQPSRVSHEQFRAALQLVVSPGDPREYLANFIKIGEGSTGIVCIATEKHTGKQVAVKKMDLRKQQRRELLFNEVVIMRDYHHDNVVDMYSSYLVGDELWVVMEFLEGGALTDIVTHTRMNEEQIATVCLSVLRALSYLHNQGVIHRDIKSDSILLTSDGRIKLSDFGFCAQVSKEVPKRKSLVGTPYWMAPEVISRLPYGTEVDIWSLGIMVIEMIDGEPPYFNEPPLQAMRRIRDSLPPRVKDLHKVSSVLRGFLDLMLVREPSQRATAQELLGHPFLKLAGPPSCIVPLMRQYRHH
Test [5] concerns the target T3, Protein kinase C zeta type (Homo sapiens) (UniProt Q05513).
T3 sequence (whole entry): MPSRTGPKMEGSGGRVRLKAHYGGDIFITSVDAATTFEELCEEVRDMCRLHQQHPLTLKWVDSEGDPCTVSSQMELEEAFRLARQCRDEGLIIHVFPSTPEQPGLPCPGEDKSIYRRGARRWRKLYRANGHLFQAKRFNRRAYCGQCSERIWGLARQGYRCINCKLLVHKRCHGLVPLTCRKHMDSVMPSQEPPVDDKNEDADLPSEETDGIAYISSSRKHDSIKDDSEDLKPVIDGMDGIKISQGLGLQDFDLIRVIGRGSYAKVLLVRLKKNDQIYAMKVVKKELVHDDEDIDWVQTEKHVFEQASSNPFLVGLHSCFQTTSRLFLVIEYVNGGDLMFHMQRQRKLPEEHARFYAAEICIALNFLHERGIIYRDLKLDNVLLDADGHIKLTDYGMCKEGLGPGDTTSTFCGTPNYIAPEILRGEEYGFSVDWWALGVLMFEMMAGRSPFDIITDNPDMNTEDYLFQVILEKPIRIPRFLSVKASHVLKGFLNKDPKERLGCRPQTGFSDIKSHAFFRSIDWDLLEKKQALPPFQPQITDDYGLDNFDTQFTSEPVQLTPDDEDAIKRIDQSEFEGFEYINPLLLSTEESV
As to the kind of experiment: Percentage PKCzeta activity remaining in the presence of 3uM inhibitor.

In test [6] the target is Serine/threonine-protein kinase pim-3 (Homo sapiens, UniProt Q86V86). Put plainly: Percentage PIM3 activity remaining in the presence of 3uM inhibitor.
Test [7] has as its target Mitogen-activated protein kinase 8 (Homo sapiens, UniProt P45983). As to the kind of experiment: Percentage JNK1 activity remaining in the presence of 2uM inhibitor.
The target of test [8] is Serine/threonine-protein kinase Nek7 (Homo sapiens) (UniProt Q8TDX7). Put plainly: Percentage NEK7 activity remaining in the presence of 2uM inhibitor.
Sequence of Serine/threonine-protein kinase Nek7 (Homo sapiens) (Q8TDX7 whole entry, looked up): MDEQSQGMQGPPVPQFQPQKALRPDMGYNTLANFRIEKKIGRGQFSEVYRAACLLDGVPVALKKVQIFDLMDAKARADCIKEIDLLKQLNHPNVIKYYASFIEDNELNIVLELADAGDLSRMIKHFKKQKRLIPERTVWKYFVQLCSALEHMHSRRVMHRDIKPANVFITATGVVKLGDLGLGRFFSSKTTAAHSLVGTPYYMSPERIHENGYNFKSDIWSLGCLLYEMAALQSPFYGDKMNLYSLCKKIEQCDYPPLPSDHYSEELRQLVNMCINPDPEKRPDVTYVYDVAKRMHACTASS
Test [9] deals with Calcium/calmodulin-dependent protein kinase kinase 2 (Homo sapiens) (UniProt Q96RR4). As to the kind of experiment: Percentage CaMKKbeta activity remaining in the presence of 2uM inhibitor.
Sequence of Calcium/calmodulin-dependent protein kinase kinase 2 (Homo sapiens) (Q96RR4 2-588 limits assumed): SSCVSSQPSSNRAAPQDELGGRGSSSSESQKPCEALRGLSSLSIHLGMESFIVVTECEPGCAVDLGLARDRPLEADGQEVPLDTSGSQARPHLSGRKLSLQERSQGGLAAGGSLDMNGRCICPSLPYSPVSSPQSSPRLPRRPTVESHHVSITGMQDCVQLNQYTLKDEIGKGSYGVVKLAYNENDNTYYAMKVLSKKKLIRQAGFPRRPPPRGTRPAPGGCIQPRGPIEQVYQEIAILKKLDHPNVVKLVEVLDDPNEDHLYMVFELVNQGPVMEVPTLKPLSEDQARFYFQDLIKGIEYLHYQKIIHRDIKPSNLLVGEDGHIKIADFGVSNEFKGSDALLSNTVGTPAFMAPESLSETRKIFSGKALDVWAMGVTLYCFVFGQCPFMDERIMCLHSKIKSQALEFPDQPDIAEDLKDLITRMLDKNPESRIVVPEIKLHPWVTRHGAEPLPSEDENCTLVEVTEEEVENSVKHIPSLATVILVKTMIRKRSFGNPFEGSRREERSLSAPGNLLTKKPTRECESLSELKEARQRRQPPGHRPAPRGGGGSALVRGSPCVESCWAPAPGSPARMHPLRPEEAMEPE
The target of test [10] is Serine/threonine-protein kinase PAK 6 (Homo sapiens) (UniProt Q9NQU5). Put plainly: Percentage PAK6 activity remaining in the presence of 2uM inhibitor.
Sequence of Serine/threonine-protein kinase PAK 6 (Homo sapiens) (Q9NQU5 whole entry, looked up): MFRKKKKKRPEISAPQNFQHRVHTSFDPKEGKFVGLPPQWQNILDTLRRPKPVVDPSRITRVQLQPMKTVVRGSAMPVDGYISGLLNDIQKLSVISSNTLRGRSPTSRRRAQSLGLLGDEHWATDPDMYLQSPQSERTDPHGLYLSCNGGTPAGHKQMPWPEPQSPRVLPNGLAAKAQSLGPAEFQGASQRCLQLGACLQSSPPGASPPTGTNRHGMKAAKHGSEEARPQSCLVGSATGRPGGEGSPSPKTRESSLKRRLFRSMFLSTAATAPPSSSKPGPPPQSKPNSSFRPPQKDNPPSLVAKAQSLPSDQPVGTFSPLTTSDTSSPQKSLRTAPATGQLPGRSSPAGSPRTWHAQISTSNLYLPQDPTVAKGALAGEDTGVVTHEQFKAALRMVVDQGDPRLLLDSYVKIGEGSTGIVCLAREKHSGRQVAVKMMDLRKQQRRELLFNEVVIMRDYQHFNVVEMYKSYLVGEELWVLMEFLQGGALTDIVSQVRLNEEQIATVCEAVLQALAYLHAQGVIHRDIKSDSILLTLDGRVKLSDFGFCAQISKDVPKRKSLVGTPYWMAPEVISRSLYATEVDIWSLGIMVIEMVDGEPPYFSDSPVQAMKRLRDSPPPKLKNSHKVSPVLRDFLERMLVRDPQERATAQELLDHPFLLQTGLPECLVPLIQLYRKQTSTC

For orientation: IC50 means the concentration that inhibits the measured activity by half.

Sequence of Mitogen-activated protein kinase 8 (P45983 whole entry): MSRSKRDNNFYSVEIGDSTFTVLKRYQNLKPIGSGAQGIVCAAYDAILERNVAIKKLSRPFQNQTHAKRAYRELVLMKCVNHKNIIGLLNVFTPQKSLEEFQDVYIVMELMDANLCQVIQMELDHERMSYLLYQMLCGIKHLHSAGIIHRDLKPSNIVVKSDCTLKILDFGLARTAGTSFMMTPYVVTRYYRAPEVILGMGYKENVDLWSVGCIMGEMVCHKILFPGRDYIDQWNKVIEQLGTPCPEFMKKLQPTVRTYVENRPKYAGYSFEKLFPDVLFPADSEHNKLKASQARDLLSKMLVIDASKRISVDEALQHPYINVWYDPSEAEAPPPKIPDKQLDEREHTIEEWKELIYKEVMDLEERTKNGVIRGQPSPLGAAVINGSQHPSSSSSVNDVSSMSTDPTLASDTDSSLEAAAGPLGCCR
Sequence of Serine/threonine-protein kinase PAK 4 (O96013 whole entry): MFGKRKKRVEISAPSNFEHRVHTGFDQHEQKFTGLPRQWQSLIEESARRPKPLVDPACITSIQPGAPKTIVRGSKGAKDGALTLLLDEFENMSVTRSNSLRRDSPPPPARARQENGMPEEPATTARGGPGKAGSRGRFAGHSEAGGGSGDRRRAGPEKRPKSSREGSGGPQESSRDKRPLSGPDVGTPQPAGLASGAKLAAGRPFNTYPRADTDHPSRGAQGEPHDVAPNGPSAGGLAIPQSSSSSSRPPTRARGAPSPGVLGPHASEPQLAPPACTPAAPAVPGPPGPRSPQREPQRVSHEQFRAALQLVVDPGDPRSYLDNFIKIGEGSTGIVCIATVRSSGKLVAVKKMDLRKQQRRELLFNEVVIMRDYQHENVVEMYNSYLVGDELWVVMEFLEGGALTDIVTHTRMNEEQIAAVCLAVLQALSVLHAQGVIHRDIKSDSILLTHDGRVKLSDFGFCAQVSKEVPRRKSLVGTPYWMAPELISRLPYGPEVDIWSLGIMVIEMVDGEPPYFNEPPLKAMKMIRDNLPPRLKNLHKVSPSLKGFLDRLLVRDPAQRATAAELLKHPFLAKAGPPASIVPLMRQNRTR

As for `CC(C)[C@H](CO)Nc1nc(Nc2cccc(Cl)c2)c2ncn(C(C)C)c2n1` [PURVALANOLA], the half-inhibitory concentration (IC50) in test [1] is 130 nM (antagonist).
Turning to `Cc1ccc(-c2c(C(=O)CF)n(CCCO)c3ncnc(N)c23)cc1`, the Activity in test [2] is 91%; in [3], 83%; in test [4], 88%; in test [5], 91%; in test [6], 56%.
With `Cn1cc(C2=C(c3ccc(Cl)cc3Cl)C(=O)NC2=O)c2ccccc21`, the Activity stood at 106% in test [7], 85% in [8], 82% in test [9] and 90% in [10].

Source of the values: ChEMBL document CHEMBL1150976, “The selectivity of protein kinase inhibitors: a further update” (Biochem J, 2007).
